In patent publication US11583538B2, “Substituted pyrrolo[1,2-a]pyrazines and pyrrolo[1,2-a][1,4]diazepines as TREX1 inhibitors” (Venenum Biodesign, LLC, priority 2019, dated 2023):

Assays:
[1] = tested on: MB49-Luc tumor; assay: MB49-Luc tumor bearing mice; format: in vivo, C57BL/6 mice; conditions: 100 μg intra-tumoral Days 1, 3, 6, 9 plus 10 Gy radiation Day 0; by Day 20; vs vehicle alone, 10 Gy + vehicle, or Example 15B + vehicle
Description: The efficacy of the TREX1 inhibitors of the present invention can also be measured in a variety of in vivo assays. Exemplary mammals that can provide models to test the effectiveness of the TREX1 inhibitors of the present invention as anticancer agents include, but are not limited to, mice. Models of tumor growth and other tumor measurements can be used to assess the effectiveness of the anticancer agents described in the current invention. Example F describes an in vivo model of tumor growth in C57BL/6 mice. Compounds of the present invention can be tested in this model for their ability to inhibit growth of tumors. Compounds of the present invention can be used in combinatorial strategies to maximizing the immunogenicity of radiation therapy (Vanpouille-Box (2017) Nature Commun. 8, 81658). […] Ten week old female C57BL/6 mice were purchased from Jackson Laboratory (www.jax.org). During the study, the care and use of animals was conducted in accordance with the regulations of the Association for Assessment and Accreditation of Laboratory 15 Animal Care (AAALAC). […] Tumors were measured in two dimensions using calipers. Tumor volumes were calculated using the formula: volume (mm3)=(length×width2)/2. […]

[2] = tested on: THP1 Dual cells, ISRE Lucia reporter gene, transfected with G3-YSD DNA; assay: Human Cellular EC50 Reporter Assay; format: cell-based; conditions: 72 h, serum-starved cells transfected with G3-YSD 10 ng/ml, three days
Description: Example E is a cell-based assay for TREX1 inhibitors using THP1 Dual™ cells (Invivogen), a human monocyte cell line that has stable integration of an Interferon Stimulated Response Element (ISRE) Lucia reporter gene. The Lucia gene encodes a secreted luciferase reporter protein, under the control of an ISG54 minimal promoter in conjunction with five IFN-stimulated response elements. Activation of the cGAS-STING pathway in THP1 Dual™ cells leads to enhanced luciferase secretion and increased luminescence.
A cell-based assay was established using THP1 Dual™ cells (InvivoGen), a human monocyte cell line that has stable integration of an Interferon Stimulated Response Element (ISRE) Lucia reporter gene. The Lucia gene encodes a secreted luciferase reporter protein, under the control of an ISG54 minimal promoter in conjunction with five IFN-stimulated response elements. Activation of the cGAS-STING pathway in these cells leads to enhanced luciferase secretion. Three days prior to the assay, cells were transferred to a T75 flask at a density of 3.0×10^5 cells/ml in 20 ml of serum-starved media (RPMI 1640 containing 1% Heat-Inactivated FBS, 1× Glutagro, 10 mM HEPES, 1 mM sodium pyruvate, 1×Pen/Strep, 100 μg/ml Normocin, 100 μg/ml Zeocin, 10 μg/ml Blasticidin). On the day of assay cells were collected by centrifugation, washed in 1×DPBS, and resuspended in the 1% serum media at 3.3×10^5 cells/ml. An aliquot of an aqueous solution of the DNA oligonucleotide G3-YSD (InvivoGen) at 1 mg/ml was diluted 100-fold into the transfection reagent LyoVec (InvivoGen) and incubated at ambient temperature for 50 min to allow complex formation. Test compounds in DMSO were transferred to a standard 96-well tissue culture plate via acoustic dispense of 0.54 μl per well. Serum-starved cells were batch transfected with complex at a final DNA concentration of 10 ng/ml for 60 min at ambient temperature before dispensing 180 ul (60,000 cells) per well into the assay plate. The assay plate was then incubated in a humidified chamber at 37° C. in 5% CO2 for three days. An aliquot of 10 μl was removed from each well to combine with 10 μl of the luciferase detection reagent, QUANTI-Luc™ Gold (InvivoGen) in a white 384-well plate. The luminescent signal was then read using an EnVision plate reader (Perkin Elmer). An EC50 for each compound was determined by plotting the signal as a function of log molar concentration and fitting to a four parameter logistic equation. (see Table 32).

[3] = molecular target: human TREX1 (Homo sapiens (Human), UniProt Q9NSU2); assay: TREX1 Exonuclease Assay; format: biochemical
Method: For human TREX1, the nucleotide sequence of the gene construct was codon optimized for expression in the bacterial host. The sequence was incorporated into the pMAL-c5e vector (NEB) downstream of a solubility-promoting MBP (maltose binding protein) fusion partner. The fusion protein product was expressed in E. coli strain BL21 (DE3) (Millipore) and purified in a series of chromatographic steps. Initial steps were conducted using a dextrin sepharose affinity column followed by a Q-sepharose ion exchange column (both GE Healthcare). After the second column the MBP partner was removed by incubation with enterokinase (NEB). Further purification was carried out with the second application of a Q-sepharose column followed by a Superdex 75 (GE Healthcare) size exclusion column. Finally, a heparin sepharose column (GE Healthcare) was applied to remove contaminating nucleotides.
To evaluate the effect of compounds on TREX1 activity, test compounds were serially diluted (11-point, 3-fold) from 10 mM stock solutions and delivered to 384-well low-volume assay plates in 80 nL DMSO using an acoustic dispenser. Next, 4 μL of human TREX1 (0.5 nM), or murine TREX1 (1 nM), diluted in assay buffer (20 mM Tris pH 7.5, 5 mM MgCl2, 100 μg/mL BSA, 0.002% Triton X-100, 2 mM DTT), was added to the assay plate. After incubating for 30 minutes, 4 μL of labeled DNA oligonucleotide (500 nM) in assay buffer was added to initiate TREX1 exonuclease activity. The reaction was allowed to proceed for 45 minutes at room temperature prior to the addition of 4 μL of 150 mM EDTA to halt TREX1 activity.

Sequence of human TREX1 (Q9NSU2 whole entry, the tested form may be a part): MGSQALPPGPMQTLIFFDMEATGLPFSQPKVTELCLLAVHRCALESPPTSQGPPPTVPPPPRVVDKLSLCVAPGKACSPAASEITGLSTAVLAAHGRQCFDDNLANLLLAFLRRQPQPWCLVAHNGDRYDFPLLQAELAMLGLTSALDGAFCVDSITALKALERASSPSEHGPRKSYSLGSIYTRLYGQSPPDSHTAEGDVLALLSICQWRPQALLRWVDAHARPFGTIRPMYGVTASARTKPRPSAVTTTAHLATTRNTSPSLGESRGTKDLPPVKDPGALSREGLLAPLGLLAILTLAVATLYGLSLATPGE

| Compound | Tumor volume [1] | EC50 [2] [µM] | IC50 [3] [µM] |
| --- | --- | --- | --- |
| N[C@@H]1C[C@H]2C(=O)N([C@H](CCC(=O)O)C(=O)NCc3ccc(Cl)c(Cl)c3)CCC(CCc3ccccc3)N2C1 (some centres unmarked) [Example 15B] | reduced tumor volumes |  |  |
| CCOc1c(CNC(=O)[C@@H](CCC(=O)O)N2CCC(CCc3ccccc3)N3C[C@H](N)C[C@H]3C2=O)ccc(Cl)c1Cl (some centres unmarked) [Example 137] |  | < 1 | < 1 |
| CC(C)Oc1c(CNC(=O)[C@@H](CCC(=O)O)N2CCC(CCc3ccccc3)N3C[C@H](N)C[C@H]3C2=O)ccc(Cl)c1Cl (some centres unmarked) [Example 138] |  | < 1 | < 1 |
